For data set [1], the system named is alanine aminotransferase (ALT) activity in blood serum. Nature of the data set: ALT activity in blood serum of mice bearing B16F1 tumor (DOX). The format is in vivo. The protocol:
(§1) Mice bearing a B16F1 tumor were intravenously administered through the tail vein in different groups of eight: (1) pretreatment with 25 mg of MIL-88A-SFN per kg of mouse at day 0 (corresponding to 3 mg SFN per kg of mouse according to the loading capacity of SFN in MIL-88A), followed by DOX at day 1 at 10 mg per kg of mouse; (2) pretreatment with SFN at 3 mg per kg of mouse at day 0, followed by DOX at day 1 at 10 mg per kg of mouse; (3) PBS injected at day 0, followed by DOX at day 1 at 10 mg per kg of mouse; and (4) PBS injected at both day 0 and day 1. Liver and blood samples were collected and analyzed to identify liver damage and morphology.

In data set [2] the test system is caspase 3/7 and caspase 9 in AML12 cells. Briefly: Caspase 3/7 and caspase 9 activity in AML12 cells after doxorubicin. Particulars: FIG. 6. It is filed as cell-based, mouse. The protocol: (§2) MTT assay was performed to quantify AML12 cell survival after 24-hour exposure to 10 μM doxorubicin (DOX). The cells were pretreated with SFN or with MIL-88A-SFN. Control cells include those incubated with DOX without pretreatment, those incubated with MIL-88A-SFN alone without incubation with DOX, and those incubated with phosphate buffered saline (PBS). The activities of caspases and CYP1A1/CYP1B1 of these cells were also measured.

The test system of data set [3] is GSTP1 and GSTA3 in B16F1 melanoma tumor tissues. Briefly: Western blot of GST expression in tumor tissues of mice bearing B16F1 tumor. It is filed as in vivo. To be noted: i.v., day 1 and day 2, FIG. 8B. The protocol: Mice bearing B16F1 tumor were intravenously administered with SFN or MIL-88A-SFN at a dose of 10 mg SFN per kg animal, through the tail vein in groups of eight. The expression levels of GSTP1 and GSTA3 in the liver and tumor tissues were measured by western blot at 24 and 48 h following the intravenous administration. Tissues from the groups of mice treated with PBS or MIL-88A were also analyzed.
A general note: A western blot detects proteins with antibodies after separation by electrophoresis.

The next data set concerns AML12 cells. Briefly: MTT assay of AML12 cell survival after doxorubicin. To be noted: FIG. 5. It is filed as cell-based, mouse. The protocol:
as §2
A general note: Tetrazolium assays rely on reduction of a dye to a coloured formazan, in cell work by metabolically active cells.

Data set [4] relates to GSTP1, GSTA3 and NQO1 in AML12 cells. Particulars: 10 μM SFN, FIG. 3.
Description: To validate the protective effect of SFN on a mouse hepatocyte cell line AML12, the expression levels of two glutathione-S-transferase (GST) isoforms, P1 and A3 (denoted as GSTP1 and GSTA3, respectively) and NAD(P)H:quinone oxidoreductase (NQO1), were quantified using western blot analysis after incubating the AML12 cells with SFN for 12, 24, and 36 hours. Beta-actin was used as a loading control.
The test system of another data set is liver tissues. Nature of the data set: Morphological microscopic analysis of liver tissues (DOX). The format is in vivo, mice. The protocol:
as §1

Data set [5] relates to caspase 3/7 in liver tissues. Briefly: Caspase 3/7 activity in liver tissues of mice bearing B16F1 tumor (DOX). The format is in vivo. The protocol: as §1
For data set [6], the system named is GST activity in AML12 cells. Nature of the data set: GST activity assay in AML12 cells. The format is cell-based, mouse. To be noted: 24 and 48 hours, 10 μM SFN, FIG. 4. The protocol: The effects of SFN (10 μM), MIL-88A MOF loaded with SFN (denoted as MIL-88A-SFN, 10 μM SFN final concentration), or a corresponding amount of unloaded MIL-88A MOF on the GST activity in AML12 cells were measured at 12, 24, or 48 hours after the treatment. The GST activity assay was performed in the presence of glutathione and 1-chloro-2,4-dinitrobenzene (a GST substrate). Measurements were performed in quadruplicate.

Data set [7] concerns CYP1A1/CYP1B1 in liver tissues. Nature of the data set: CYP1A1/CYP1B1 activity in liver tissues of mice bearing B16F1 tumor (DOX). It is filed as in vivo. The protocol:
as §1

Data set [8] has as its system CYP1A1/CYP1B1 in AML12 cells. Briefly: CYP1A1/CYP1B1 activity in AML12 cells after doxorubicin. The format is cell-based, mouse. Particulars: FIG. 7. The protocol: as §2
A further data set relates to B16F1 tumor. Briefly: Tumor volume in mice bearing B16F1 tumor, DOX with or without pretreatment. It is filed as in vivo. Particulars: DOX 10 mg per kg i.v. at day 1, with or without pretreatment, vs PBS only, FIG. 9.
Another data set has as its system bilirubin in blood serum. Nature of the data set: Bilirubin concentration in blood serum of mice bearing B16F1 tumor (DTIC). It is filed as in vivo. To be noted: DTIC 120 mg per kg, 4 cycles, FIG. 17. The protocol:
(§3) Mice bearing B16F1 tumor were intravenously administered through the tail vein in different groups of eight: (1) pretreatment with PLGA-SBN (corresponding to 10 mg SBN per kg of mouse), followed by dacarbazine (DTIC) on the next day at a dose of 120 mg per kg mouse; (2) pretreatment with SBN (10 mg per kg), followed by DTIC on the next day at a dose of 120 mg per kg mouse; (3) PBS, followed by DTIC on the next day at a dose of 120 mg per kg mouse; (4) pretreatment with plain PLGA and free (non-encapsulated) SBN (10 mg per kg of mouse), followed by PBS on the next day; and (5) PBS injected at both days (once per day). Liver and blood samples were collected and analyzed to identify liver damage and morphology.

Data set [9] deals with caspase 3 in liver tissues. Briefly: Western blot of pro-caspase 3 and active caspase 3 in liver tissues (DTIC). The format is in vivo, mice. To be noted: DTIC 120 mg per kg, 4 cycles, FIG. 18. The protocol: as §3
Data set [10] concerns alanine aminotransferase (ALT) activity in blood serum. Briefly: ALT activity in blood serum of mice bearing B16F1 tumor (DTIC). It is filed as in vivo. To be noted: DTIC 120 mg per kg, 4 cycles, FIG. 16. The protocol:
as §3

The mark [11] stands for this setting: pretreatment then 10 μM DOX 24 h.

SMILES strings stand for the structures.

As for `C[S+]([O-])CCCCN=C=S` (stereo not shown) [SFN, sulforaphane], the “DOX-induced upregulation of ALT activity after pretreatment” value in [1] (3 mg SFN per kg day 0, DOX 10 mg per kg day 1, FIG. 10) is listed as “attenuated the upregulation”. Moreover, the “caspase activity after pretreatment” value in [2] (setting [11]) is reported as “significantly decreased”. Besides, the “GST expression in B16F1 melanoma tumor tissues” value in data set [3] is on record as “neither SFN nor MIL-88A-SFN strongly affected”. Moreover, the “apoptosis / cell survival after pretreatment” value with AML12 cells (setting [11]) was “significantly decreased apoptosis”. In addition, in data set [4] (24 h, vs untreated cells), the “expression of phase 2 enzymes GSTP1 and GSTA3” value is on record as “upregulation”. Also, the “expression of NQO1” value in data set [4] was “enhanced expression”. The “DOX-induced liver pathology after pretreatment” value with liver tissues (3 mg SFN per kg day 0, DOX 10 mg per kg day 1) is “attenuated the aforementioned symptoms of hepatotoxicity”. Further, the “DOX-induced upregulation of liver caspase activity after pretreatment” value in [5] (3 mg SFN per kg day 0, DOX 10 mg per kg day 1, FIG. 11) is “but not SFN, attenuated the upregulation”. Moreover, the GST activity entry in data set [6] was “equaled the GST activity in the cells treated with SFN-loaded MIL-88A”. Moreover, the “DOX-induced upregulation of liver CYP1A/CYP1B activity after pretreatment” value in [7] (3 mg SFN per kg day 0, DOX 10 mg per kg day 1, FIG. 12) is “but not SFN, attenuated the upregulation”. The “DOX-induced upregulation of CYP1A1/CYP1B1 after pretreatment” value in data set [8] (setting [11]) is listed as “suppressed the upregulation”.

Regarding `COc1cccc2c1C(=O)c1c(O)c3c(c(O)c1C2=O)C[C@@](O)(C(=O)CO)C[C@@H]3O[C@H]1C[C@H](N)[C@H](O)[C@H](C)O1` [DOX, doxorubicin], the “ALT activity in blood serum” value in data set [1] (DOX 10 mg per kg i.v., FIG. 10) was “induced an upregulation”. Further, the caspase activity entry in data set [2] (10 μM DOX alone 24 h) is “highest caspase activity”. The cell survival rate result in the data set with AML12 cells (10 μM DOX alone 24 h) is “lowest survival rate”. The “liver morphology (hepatotoxicity)” value with liver tissues (DOX 10 mg per kg i.v.) is “induced moderate cholestasis, focal necrosis, and mononuclear infiltration of sinusoids”. The tumor volume entry with B16F1 tumor is “lower tumor volumes up to at least 9 days”. The “caspase activity in the liver tissues” value in data set [5] (DOX 10 mg per kg i.v., FIG. 11) was “induced an upregulation”. Further, the “CYP1A/CYP1B activity in the liver tissues” value in data set [7] (DOX 10 mg per kg i.v., FIG. 12) is recorded as “induced an upregulation”. In data set [8] (10 μM DOX 24 h), the “level of CYP1A1/CYP1B1” value was “induced an increase”.

On to `CN(C)/N=N/c1[nH]cnc1C(N)=O` [DTIC, dacarbazine], for which the “bilirubin concentration in blood serum” value with bilirubin in blood serum is on record as “induced an upregulation”. In addition, the “caspase 3 activation in liver tissues” value in [9] is recorded as “induced caspase 3 activation”. For the same compound, the “ALT activity in blood serum” value in [10] is “induced an upregulation”.

(Values after patent US20190015335A1, “HEPATOPROTECTIVE PARTICLES AND SYSTEMS AND METHODS OF USE THEREOF” (South Dakota Board of Regents, priority 2017, published 2019).)
